Test results: patent US20230313199A1, “TARGET FOR MODULATING BODY MASS” (Massachusetts Institute of Technology, priority 2020, published 2023)

Legend:
NTD of human MFSD7C [1] = target: T1, NTD of human MFSD7C (Homo sapiens, UniProt Q9UPI3); test: Isothermal titration calorimetry of NTD binding to heme
T1 construct: Plasmid harboring GST-His-tag-SUMO-NTD (amino acids 1-84); GST-His-tag-SUMO (N, cleaved yes); made in house; host or cells: Escherichia coli Lemo21(DE3)
T1 sequence (Q9UPI3 1-84): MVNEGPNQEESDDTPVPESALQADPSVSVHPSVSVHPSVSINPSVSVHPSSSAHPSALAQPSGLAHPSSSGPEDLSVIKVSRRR

HP motif peptide = target: T2, HP motif peptide (Homo sapiens, UniProt Q9UPI3); test: Isothermal titration calorimetry of HP motif peptide binding to heme (one-site model)
T2 construct: a synthetic 14-amino acid HP motif peptide; made in house; host or cells: chemical solid-phase synthesis (Koch Institute Biopolymers & Proteomics Core)

NTD of human MFSD7C [2] = target: T1, NTD of human MFSD7C; test: Gel-filtration assay of NTD and heme; type: binding; conditions: Superdex 75; absorbance 380 nm, 415 nm and 230 nm
Description: Gel-filtration assay. Purified NTD (200 μM) was incubated with freshly prepared heme (150 μM) in a 1 mL reaction containing 5% DMSO, 25 mM HEPES-NaOH pH 7.8, and 10 mM NaCl. The solution was run over Superdex 75 (24 mL) gel-filtration column at 0.3 mL/min rate using AKTA-FPLC. Absorbance was monitored at 230, 380, and 415 nm. 2 mL injection volume was subtracted from the final elution volume. Solution containing dissolved hemin in the reaction buffer without the NTD protein aggregated on top of the Superdex 75 column, thus this control was avoided in our experiments.

[3] = target: T3, endogenous MFSD7C and HMOX1 (Mus musculus, UniProt Q91X85); test: Co-IP of endogenous MFSD7C and HMOX1 in bone marrow-derived macrophages; type: cell-based; conditions: heme treatment
T3 construct: Co-IP and immunoblotting analysis of endogenous MFSD7C with ATP5h, SERCA2b and HMOX1 in bone marrow-derived macrophages; endogenous in cells; host or cells: bone marrow-derived macrophages from Mfsd7c fl/fl C57BL/6 mice
Description: NTD was incubated with heme and run on Superdex 75 gel filtration column. The flow through was measured for absorbance at 230 nm (gray), 380 nm (blue), and 415 nm (green). Absorbance intensity was normalized to maximum value. […] Heme (100 μM) absorption was set to zero. […] Wildtype (WT) and mutant (Mut) peptide sequences are shown. […] Shown are representative data from five separate experiments. […] Shown are immunoblots of MFSD7C, ATP5h, SERCA2b, and HMOX1 on whole lysates or immunoblots of MFSD7C on anti-ATP5h, anti-SERCA2b and anti-HMOX1 immunoprecipitates. Representative data from one from three experiments are shown. […] Shown are representative data from three separate experiments. WCE: whole cell extract, Sup: supernatant, Mito: 10,000 g mitochondrial fraction. […] THP-1 cells were stained with MitoTracker (green), fixed and permeabilized, and then stained with rabbit polyclonal antibody specific for the C-terminus of MFSD7C, followed with Alexa Fluor® 594-labelled goat anti-rabbit antibody (red). Nuclei were labeled using DAPI (blue). […]
Differentiation of bone marrow-derived macrophage (BMDM). […] Cells were resuspended in DMEM media containing 10% FBS, 2 mM L-glutamine, 2 mM pyruvate, non-essential amino acids (100 μM each), 0.55 mM 2-mercaptoethanol, penicillin/streptomycin), passed through a 40 μm Falcon cell strainer (VWR) to remove large aggregates, and counted. […]

SERCA2b [4] = test: SERCA2b protein level by Western blotting, THP-1 cells; type: cell-based, human; conditions: THP-1 cells following heme treatment vs parental THP-1 cells
Description: (§1) FIGS. 5A-5F show MFSD7C and heme regulate thermogenesis through SERCA2b in THP-1 cells. […] 30 hours later, MG132 was added into half of the cells and the other half was not treated. Another 35 hours later, some cells were treated with 40 μM heme for 1 hour before lysis. Cell lysates were immunoprecipitated with anti-FLAG antibody, and eluted, followed by anti-HA immunoprecipitation and elution. Total cell lysate and elute were subjected to Western blotting and probed with anti-SERCA2b or anti-MFSD7C antibodies. Shown are representative data from one of three experiments. […] 24 hrs later, cells were either not treated or treated with 10 μM MG132 for either 6 or 12 hours. The cells were lysed and subjected to FLAG pull-down and blotted with anti-MFSD7C, anti-SERCA2b and anti-ubiquitin antibodies. Shown are representative data from one of three experiments. […] Parental THP-1 cells were either not treated or treated with heme before lysis. Shown are representative data from one of four experiments. […] Shown are representative data from one of two experiments. […] Cells were washed and treated with 40 μM heme for one hour before flow cytometry. Representative FPT histograms from one of three experiments are shown. […] Shown are representative FPT histograms from one of three experiments.
(§2) Endogenous protein extraction. […]

SERCA2b [5] = test: SERCA2b protein level by Western blotting, 4B8^FL cells; type: cell-based, human; conditions: 40 μM heme for one hour, reduction by MFSD7C^FL expression
Description: as §1, §2

T3 sequence (Q91X85 whole entry): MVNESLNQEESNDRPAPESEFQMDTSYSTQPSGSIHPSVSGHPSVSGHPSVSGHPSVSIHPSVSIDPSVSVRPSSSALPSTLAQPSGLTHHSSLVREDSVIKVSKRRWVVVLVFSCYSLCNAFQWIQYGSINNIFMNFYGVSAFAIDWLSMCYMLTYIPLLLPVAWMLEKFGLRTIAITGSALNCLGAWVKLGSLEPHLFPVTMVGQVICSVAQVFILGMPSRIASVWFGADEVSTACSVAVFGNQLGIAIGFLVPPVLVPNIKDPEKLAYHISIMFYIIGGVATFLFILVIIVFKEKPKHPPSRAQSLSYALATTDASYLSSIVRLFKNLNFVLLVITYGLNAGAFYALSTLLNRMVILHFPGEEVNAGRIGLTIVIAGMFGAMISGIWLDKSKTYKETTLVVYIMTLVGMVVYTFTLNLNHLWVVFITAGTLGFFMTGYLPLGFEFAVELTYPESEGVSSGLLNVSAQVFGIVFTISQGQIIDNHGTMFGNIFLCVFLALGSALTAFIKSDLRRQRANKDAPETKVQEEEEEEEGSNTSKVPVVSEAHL
T3 sequence (P14901 whole entry partner): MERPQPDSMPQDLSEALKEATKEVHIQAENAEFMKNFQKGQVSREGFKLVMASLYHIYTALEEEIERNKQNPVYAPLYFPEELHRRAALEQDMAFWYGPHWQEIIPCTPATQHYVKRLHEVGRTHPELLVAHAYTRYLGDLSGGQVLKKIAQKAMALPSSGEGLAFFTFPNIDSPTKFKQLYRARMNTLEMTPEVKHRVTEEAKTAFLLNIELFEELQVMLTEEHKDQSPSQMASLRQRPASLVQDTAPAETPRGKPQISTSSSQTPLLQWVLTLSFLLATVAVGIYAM

C=CC1=C(C)c2cc3[n-]c(cc4[n-]c(cc5nc(cc1n2)C(C)=C5C=C)c(C)c4CCC(=O)O)c(CCC(=O)O)c3C.[Fe+2] [heme]
heme molecules bound by the NTD (NTD of human MFSD7C [1]; ITC): three
heme molecules the NTD is capable of binding (NTD of human MFSD7C [1]; overall conclusion of Example 2): 2-3
binding stoichiometry heme : HP motif peptide (HP motif peptide): one heme bound to one HP motif peptide
co-elution in gel-filtration chromatography (NTD of human MFSD7C [2]): co-eluted with the NTD
interactions between endogenous MFSD7C and HMOX1 (co-IP) [3]: enhanced
SERCA2b level (SERCA2b [4]): significantly higher
SERCA2b level (SERCA2b [5]): restored
